Like-named read-outs stand apart in the source and are kept apart here. One block for each compound: values may come before it.
How the values were obtained:
[1] = tested on: rat liver microsomes; assay: Metabolic stability using rat liver microsomes; format: in vitro ADME; parameters: half-life: dose or concentration left out as unconfirmed
From the text: (§1) Table 7 summarizes the experimental conditions used in the studies of the metabolic stability of the compound of Formula (Ia) using rat liver microsomes. Table 8 and FIG. 13 show the results from the studies of the metabolic stability of the compound of Formula (Ia) using rat liver microsomes. [table]

[2] = Metabolic stability using rat liver microsomes; format: in vitro ADME; parameters: half-life: dose or concentration left out as unconfirmed; details: rat, rat liver microsomes, pH 7.4
From the text: as §1

[3] = Metabolic stability using human liver microsomes; format: in vitro ADME; details: human
From the text: (§2) Table 9 summarizes the experimental conditions used in the studies of the metabolic stability of the compound of Formula (Ia) using dog liver microsomes and human liver microsomes.

[4] = tested on: human liver microsomes (HLM); assay: Metabolic stability using human liver microsomes; format: in vitro ADME
From the text: as §2

[5] = Metabolic stability using dog liver microsomes; format: in vitro ADME; details: dog, dog liver microsomes, pH 7.4; DLM control (without NADPH)
From the text: as §2

[6] = tested on: dog liver microsomes (DLM); assay: Metabolic stability using dog liver microsomes; format: in vitro ADME
From the text: as §2

[7] = Stability in sodium phosphate buffer (HPLC); format: physicochemical; details: for half-life: buffer without microsomes and without NADPH; for Half life: buffer
Description: The stability of the compound of Formula (Ia) in a sodium phosphate buffer (50 mM, pH 7.4) was evaluated using HPLC. […] Area counts of apocynin and lipoid acid were found in 0 minute samples and were generally constant until the last time point measured (see: FIGS. 11-12 and Tables 5-6).

[8] = tested on: N27 neuronal cells; assay: DNA fragmentation ELISA after hydrogen peroxide exposure of N27 neuronal cells; format: cell-based; details: for DNA cell fragmentation: n = 4
Description: Specifically, the effects of (Ia) on oxidative stress in N27 neuronal cells, a dopaminergic cell line were studied. […]
The cells were then lysed, and DNA fragmentation was determined by ELISA assay.

[9] = tested on: markers of oxidative stress (SOD1, SOD2, GSH, GSSG, H2O2, HNE-His adducts, DNA fragmentation); details: administered 30 min prior to I/R; same model, previously demonstrated; cited from earlier work
[10] = tested on: Sprague-Dawley rats; details: previous studies, cited from earlier work
[11] = matrix buffer (no microsomes, no NADPH), DLM/HLM study
[12] = matrix buffer (no microsomes, no NADPH), rat liver microsome study

Compound: O=C(O)Cc1ccccc1Nc1c(Cl)cccc1Cl [diclofenac]
% Metabolism in 30 minutes ([1]; matrix RLM (positive control)): 84%
CLintr (mL/min/g liver) ([1]; matrix RLM (positive control)): 6.4 mL/min/g liver
half-life ([2]; matrix RLM (positive control)): 11 min
half-life ([3]; microsomes, matrix HLM (positive control)): 9 min
% Metabolism in 30 minutes ([4]; matrix HLM (positive control)): 92%
CLintr (mL/min/g liver) ([4]; matrix HLM (positive control)): 8.4 mL/min/g liver

half-life at 0.5 µM [5]: > 30 min
% Metabolism in 30 minutes ([6]; DLM control (without NADPH)): 0%
CLintr (mL/min/g liver) ([6]; DLM control (without NADPH)): <0.6 mL/min/g liver
% Metabolism in 30 minutes ([6]; DLM reaction (with NADPH)): 30%
CLintr (mL/min/g liver) ([6]; DLM reaction (with NADPH)): 1.6 mL/min/g liver
Half life ([6]; DLM reaction (with NADPH)): >30 min
half-life [7, 11]: > 30 min
half-life [7, 12]: > 30 min
% Metabolism in 30 minutes [7, 11]: 1%
CLintr (mL/min/g liver) [7, 11]: <0.6 mL/min/g liver
% Metabolism in 30 minutes [7, 12]: 0%
CLintr (mL/min/g liver) [7, 12]: <0.6 mL/min/g liver
% Metabolism in 30 minutes ([1]; RLM, control (without NADPH)): 2%
CLintr (mL/min/g liver) ([1]; RLM, control (without NADPH)): <0.6 mL/min/g liver
% Metabolism in 30 minutes ([1]; RLM, reaction (with NADPH)): 0%
CLintr (mL/min/g liver) ([1]; RLM, reaction (with NADPH)): <0.6 mL/min/g liver
Half life ([1]; RLM, reaction (with NADPH)): >30 min
half-life at 0.5 µM ([2]; RLM, control (without NADPH)): > 30 min
half-life ([3]; human liver microsomes, HLM control (without NADPH)): > 30 min
% Metabolism in 30 minutes ([4]; HLM control (without NADPH)): 0%
CLintr (mL/min/g liver) ([4]; HLM control (without NADPH)): <0.6 mL/min/g liver
% Metabolism in 30 minutes ([4]; HLM reaction (with NADPH)): 0%
CLintr (mL/min/g liver) ([4]; HLM reaction (with NADPH)): <0.6 mL/min/g liver
Half life ([4]; HLM reaction (with NADPH)): >30 min
Compound: COc1cc(C(C)=O)ccc1O [Apocynin, 4-hydroxy-3-methoxyacetophenone]
DNA fragmentation induced by hydrogen peroxide reduced by ([8]; pretreatment 100 μM): 41%
DNA cell fragmentation ([8]; pretreatment 100 μM, then hydrogen peroxide (1 mM)): 244 ± 32 percentage of control
SOD2 activity [9]: ineffective

Compound: c1ccc2c(c1)[I+]c1ccccc1-2 [DPI, diphenyleneiodonium]
DNA fragmentation induced by hydrogen peroxide reduced by ([8]; pretreatment 10 μM): 48%
DNA cell fragmentation ([8]; pretreatment 10 μM, then hydrogen peroxide (1 mM)): 208 ± 38 percentage of control

Half life ([6]; dog, microsomes): >30 min
CLintr (mL/min/g liver) [7]: 0.9 mL/min/g liver
Half life [7]: >30 min
% Metabolism in 30 minutes [7, 11]: 0%
% Metabolism in 30 minutes [7, 12]: 0%
CLintr (mL/min/g liver) ([7]; rat): <0.6 mL/min/g liver
Half life ([7]; rat): >30 min
CLintr (mL/min/g liver) ([1]; rat, microsomes): <0.6 mL/min/g liver
Half life ([1]; rat, microsomes): >30 min
% Metabolism in 30 minutes [4]: 0%
CLintr (mL/min/g liver) ([4]; human, microsomes): <0.6 mL/min/g liver
Half life ([4]; human, microsomes): >30 min
Compound: 1,2-dithiolane-2-pentanoic acid [lipoic acid]
neuroprotection when administered just prior to the beginning of reperfusion ([10]; 5 mg/kg): did not result in significant neuroprotection
most effective dose ([10]; I/R model): 5 mg/kg
SOD2 activity [9]: increased SOD2 activity

Compound: OO [Hydrogen Peroxide, hydrogen peroxide]
DNA cell fragmentation ([8]; hydrogen peroxide alone (6 hr)): 428 ± 52 percentage of control

From patent US9012492B2, “Apocynin-lipoic acid conjugates and uses thereof” (priority 2011, dated 2015)
